Test results reported in paper PMC11354745, “Discovery of Novel Amino Acids (Analogues)-Substituted Thiophene[3,2-d]pyrimidine Derivatives as Potent HIV-1 Non-Nucleoside Reverse Transcriptase Inhibitors: Design, Synthesis, and Biological Evaluation” (International Journal of Molecular Sciences, 2024).
Where two headings read alike, the source gives them in different places.

Assays:
[1] = test system: HIV-1 double-mutant strain K103N+Y181C (RES056); experiment: microbe, parasite or virus in culture; assay type: cell-based; details: for EC50: Human immunodeficiency virus 1, MT4, read-out: EC50 RES056; for SI RES056: selectivity index, ratio CC50/EC50, RES056
Description: (§1) All the target compounds were first evaluated for their antiviral activity against HIV-1 wild-type (WT) strain (IIIB) and the double-mutant strain K103N+Y181C (RES056) in the MT-4 cell line, using the MTT method.
(§2) The antiviral potential and cytotoxic effects of the target compounds were assessed using the MTT assay in MT-4 cells, following established protocols. The HIV-1 (IIIB) strain, single mutant strains (L100I, K103N, Y181C, Y188L and E138K), double mutant strains (F227L + V106A and K103N + Y181C) and MT-4 cells were provided by the Rega Institute of Medicine at the University of Leuven, Belgium. These viral strains were propagated in MT-4 cells. […] The specific experimental procedures are detailed below.
(§3) Initially, concentrated solutions of the test compounds were prepared at 10-fold the final desired concentration and added to triplicate wells in 25 µL aliquots to assess their impacts on both mock and HIV-infected MT-4 cells. Using a Biomek 3000 robot, these were diluted in a 96-well flat-bottomed microplate by mixing with medium, creating a series of 5-fold steps down in concentration. Each test included control groups of untreated infected and mock-infected cells to establish baselines for comparison. […] These strains served to mimic both typical and resistant infections. Additionally, mock-infected wells received an equal volume of culture medium to assess the compounds’ impacts on uninfected cells, thereby determining cytotoxicity. MT-4 cells in the exponential growth phase were pelleted by centrifugation at 1000 rpm for 5 min, after which the supernatant was removed. The cells were resuspended to a density of 6 × 10^5 cells/mL, and 50 µL of this suspension was added to each well. Post-infection, on the fifth day, cell viability in both mock and infected conditions was measured via the MTT assay using a spectrophotometer.

[2] = test system: HIV-1 Y181C mutant strain; experiment: Anti-HIV activity in MT-4 cells (MTT method), Y181C; assay type: cell-based; details: Human immunodeficiency virus 1, MT4, read-out: EC50 Y181C
Source text: (§4) All the target compounds were first evaluated for their antiviral activity against HIV-1 wild-type (WT) strain (IIIB) and the double-mutant strain K103N+Y181C (RES056) in the MT-4 cell line, using the MTT method. The potent inhibitors were selected to assess their efficacy against other strains resistant to NNRTIs, including L100I, K103N, Y181C, Y188L, E138K and the double-mutant strain F227L+V106A. The approved drugs NVP, EFV and ETR were selected as reference drugs. The biological evaluation results of the test compounds, presented as EC50 (anti-HIV potency), CC50 (cytotoxicity) and SI (selectivity index, CC50/EC50 ratio), are summarized in Table 1 and Table 2.
(§5) The antiviral potential and cytotoxic effects of the target compounds were assessed using the MTT assay in MT-4 cells, following established protocols. The HIV-1 (IIIB) strain, single mutant strains (L100I, K103N, Y181C, Y188L and E138K), double mutant strains (F227L + V106A and K103N + Y181C) and MT-4 cells were provided by the Rega Institute of Medicine at the University of Leuven, Belgium. These viral strains were propagated in MT-4 cells. The MT-4 cells were cultured in RPMI-1640 medium supplemented with 20 mM HEPES buffer (Life Technologies, Grand Island, NY, USA), 10% (v/v) heat-inactivated fetal calf serum (FCS), 2 mM L-glutamine, 0.1% sodium bicarbonate, and 20 μg/mL gentamicin. Cultures were maintained at 37 °C in a 5% CO2 atmosphere. The specific experimental procedures are detailed below.
(§6) Initially, concentrated solutions of the test compounds were prepared at 10-fold the final desired concentration and added to triplicate wells in 25 µL aliquots to assess their impacts on both mock and HIV-infected MT-4 cells. Using a Biomek 3000 robot, these were diluted in a 96-well flat-bottomed microplate by mixing with medium, creating a series of 5-fold steps down in concentration. Each test included control groups of untreated infected and mock-infected cells to establish baselines for comparison. We introduced HIV-1 strains, both wild-type (IIIB) and drug-resistant variants harboring mutations L100I, K103N, Y181C, Y188L, E138K and F227L + V106A and the double mutant K103N + Y181C (RES056), at concentrations of 100–300 CCID50, into their respective wells. These strains served to mimic both typical and resistant infections. Additionally, mock-infected wells received an equal volume of culture medium to assess the compounds’ impacts on uninfected cells, thereby determining cytotoxicity. MT-4 cells in the exponential growth phase were pelleted by centrifugation at 1000 rpm for 5 min, after which the supernatant was removed. The cells were resuspended to a density of 6 × 10^5 cells/mL, and 50 µL of this suspension was added to each well. Post-infection, on the fifth day, cell viability in both mock and infected conditions was measured via the MTT assay using a spectrophotometer. The CC50 was identified as the concentration of the compound that caused a 50% reduction in the viability of the mock-infected cells, indicating cytotoxicity. Conversely, the EC50 represented the concentration that provided 50% protection against viral cytopathic effects in infected cells, signifying antiviral potency.

[3] = Cytotoxicity in mock-infected MT-4 cells (MTT method); assay type: cell-based; details: human, CC50
Description: as §5, §6

WT HIV-1 RT = biological target: T1, WT HIV-1 RT (Human immunodeficiency virus type 1 group M subtype B, UniProt P03366); experiment: HIV-1 RT inhibition assay (Roche kit, ELISA); assay type: biochemical
T1 construct: viral nucleotides (dNTPs) and the HIV-1 RT enzyme in an incubation buffer; purchased Roche
Source text: An assay kit for HIV-1 reverse transcriptase (RT) from Roche was utilized to assess RT inhibition. The kit provided all necessary components for the RT reaction, and the enzyme-linked immunosorbent assay (ELISA) methodology for the inhibition assay was executed according to the kit’s instructions. […] Unbound dNTPs were washed away, and an anti-[…] (DIG)-POD working solution was introduced. […] Excess anti-DIG-POD was removed, and a peroxidase substrate (ABTS) solution was applied to the MTPs. […] The percentage of the inhibitory activity of the RT inhibitors was calculated by formula, as given below:
% Inhibition = [O.D. value with RT but without inhibitors − O.D. value with RT and inhibitors]/[O.D. value with RT […] − O.D. value without RT and inhibitors].

[4] = test system: HIV-1 double-mutant strain F227L+V106A; experiment: Anti-HIV activity in MT-4 cells (MTT method), F227L+V106A; assay type: cell-based; details: Human immunodeficiency virus 1, MT4, read-out: EC50 F227L/V106A
Source text: as §4, §5, §6

[5] = test system: HIV-1 Y188L mutant strain; experiment: Anti-HIV activity in MT-4 cells (MTT method), Y188L; assay type: cell-based; details: Human immunodeficiency virus 1, MT4, read-out: EC50 Y188L
Source text: as §4, §5, §6

[6] = test system: HIV-1 L100I mutant strain; experiment: Anti-HIV activity in MT-4 cells (MTT method), L100I; assay type: cell-based; details: Human immunodeficiency virus 1, MT4, read-out: EC50 L100I
Source text: as §4, §5, §6

[7] = test system: HIV-1 E138K mutant strain; experiment: Anti-HIV activity in MT-4 cells (MTT method), E138K; assay type: cell-based; details: for EC50: Human immunodeficiency virus 1, MT4, read-out: EC50 E138K
Source text: as §4, §5, §6

[8] = test system: HIV-1 K103N mutant strain; experiment: Anti-HIV activity in MT-4 cells (MTT method), K103N; assay type: cell-based; details: Human immunodeficiency virus 1, MT4, read-out: EC50 K103N
Source text: as §4, §5, §6

[9] = test system: HIV-1 wild-type (WT) strain (IIIB); experiment: Anti-HIV activity in MT-4 cells (MTT method), HIV-1 IIIB; assay type: cell-based; details: for EC50: Human immunodeficiency virus 1, IIIB, MT4, read-out: EC50 IIIB; for SI IIIB: selectivity index, ratio CC50/EC50, IIIB
Description: as §1, §2, §3

MT-4 cells = experiment: Cytotoxicity in mock-infected MT-4 cells (MTT method); assay type: cell-based; details: human, 5 days
Description: as §5, §6

[10] = test system: HIV-1 wild-type (WT) and a panel of NNRTI-resistant strains; experiment: Anti-HIV activity in MT-4 cells (MTT method), WT and panel of NNRTI-resistant strains; assay type: cell-based
Source text: as §4
The antiviral potential and cytotoxic effects of the target compounds were assessed using the MTT assay in MT-4 cells, following established protocols. […]
Initially, concentrated solutions of the test compounds were prepared at 10-fold the final desired concentration and added to triplicate wells in 25 µL aliquots to assess their impacts on both mock and HIV-infected MT-4 cells. […] Post-infection, on the fifth day, cell viability in both mock and infected conditions was measured via the MTT assay using a spectrophotometer. […]

SMILES: Cc1cc(C#N)cc(C)c1Oc1nc(Nc2ccc(NC(=O)[C@@H](N)C(C)C)cc2)nc2ccsc12 [5i]
- EC50 [1]: ≥ 6620 nM
- SI RES056 [1]: ≤1
- EC50 [2]: > 6540 nM
- CC50 at 5 days [3]: 6540 ± 1340 nM
- IC50 (WT HIV-1 RT): 1350 ± 148 nM
- EC50 [4]: 3030 ± 1760 nM
- EC50 [5]: 6910 ± 944 nM
- EC50 [6]: 1200 ± 218 nM
- EC50 [7]: 247 ± 107 nM
- EC50 [8]: 45 ± 10 nM
- melting point: 184 to 187 °C
- EC50 [9]: 42 ± 8 nM
- SI IIIB [9]: 157

SMILES: Cc1cc(C#N)cc(C)c1Oc1nc(Nc2ccc(NC(=O)C3CCCN3)cc2)nc2ccsc12 (stereo not shown) [5k]
- EC50 [1]: 7530 ± 280 nM
- SI RES056 [1]: 4
- EC50 [2]: 1850 ± 621 nM
- CC50 at 5 days [3]: 27900 nM
- CC50 (MT-4 cells): 27900 ± 910 nM
- IC50 (WT HIV-1 RT): 1120 ± 74 nM
- EC50 [4]: 1760 ± 686 nM
- EC50 [5]: 2360 ± 57 nM
- EC50 [6]: 601 ± 261 nM
- EC50 [7]: 94 ± 22 nM
- fold superior to NVP, E138K ([7]; ratio of EC50 values against E138K, versus NVP): ~1.9 fold
- EC50 ([10]; Human immunodeficiency virus 1, MT4, read-out: EC50 values against HIV-1 WT and a panel of NNRTI-resistant strains, range over strains, MT-4 cells): 42 to 7530 nM
- EC50 ([10]; read-out: EC50 values against HIV-1 WT and a panel of NNRTI-resistant strains, range over strains, MT-4 cells): 31 to 2360 nM
- EC50 [8]: 31 ± 4 nM
- melting point: 227 to 230 °C
- EC50 [9]: 54 ± 18 nM
- SI IIIB [9]: 513

SMILES: Cc1cc(C#N)cc(C)c1Oc1nc(Nc2ccc(NC(=O)[C@@H](N)Cc3c[nH]cn3)cc2)nc2ccsc12 [5e]
- EC50 [1]: ≥ 4880 nM
- SI RES056 [1]: ≤5
- EC50 [2]: 2580 ± 477 nM
- CC50 at 5 days [3]: 25100 ± 2300 nM
- IC50 (WT HIV-1 RT): 927 ± 64 nM
- EC50 [4]: 1460 ± 979 nM
- EC50 [5]: 2260 ± 733 nM
- EC50 [6]: 902 ± 311 nM
- EC50 [7]: 260 ± 75 nM
- EC50 [8]: 35 ± 9 nM
- melting point: 158 to 160 °C
- EC50 [9]: 52 ± 22 nM
- SI IIIB [9]: 484
